Source: ChEMBL document CHEMBL1132516, “Further hypotensive metabolites from Verbesina caracasana” (1999)

Assays:
Rattus norvegicus [1] = assay: Percent change in systolic blood pressure (mmHg)in anesthetized rats by i.v. administration; type: functional, Artery
Rattus norvegicus [2] = assay: Percent change in diastolic blood pressure (mmHg)in anesthetized rats by i.v. administration; type: functional, Artery
Rattus norvegicus [3] = assay: Maximum rate of rise of the left ventricular isovolumetric pressure in anesthetized rats by i.v. administration; type: functional, Heart left ventricle
Rattus norvegicus [4] = assay: Percent change in heart rate expressed in beats / min in anesthetized rats by i.v. administration; type: functional
Rattus norvegicus [5] = assay: Percent change in respiratory frequency (RF) expressed in beats / min in anesthetized rats by i.v. administration; type: functional
Rattus norvegicus [6] = assay: Percent change in tidal volume expressed in microL in anesthetized rats by i.v. administration; type: functional
Rattus norvegicus [7] = assay: Maximum rate of rise of the left ventricular isovolumetric pressure (dP/dt, an index of cardiac inotropism in mmHg/sec)in anesthetized rats by i.v. administration; type: functional, Heart left ventricle

SMILES	Change (Rattus norvegicus [1]) [%]	Change (Rattus norvegicus [2]) [%]	Change (Rattus norvegicus [3]) [%]	Change (Rattus norvegicus [4]) [%]	Change (Rattus norvegicus [5]) [%]	Change (Rattus norvegicus [6]) [%]	Change (Rattus norvegicus [7]) [%]
COc1ccc(/C=C/C(=O)NCCCC/N=C(\N)NCC=C(C)C)cc1OC	-26	-29	57	5	21	41	–
COc1ccc(/C=C/C(=O)NCCCCN=C(N)N)cc1OC	-8	-8	11	0	4	12	–
CC(C)=CCNC(=N)NCCCCN	-11	-17	23	-4	4	11	–
NCCCCN=C(N)N [AGMATINE]	-8	-10	16	0	12	14	–
Clc1cccc(Cl)c1NC1=NCCN1 [CLONIDINE]	-16	-17	-21	-15	–	–	–
CC(C)=CCN=C(N)N [GALEGINE]	-27	-33	32	-27	70	31	–
N=C(N)NCCN1CCCCCCC1 [GUANETHIDINE]	-26	-24	-17	-7	–	–	–
C[N+](C)(C)CCCCCC[N+](C)(C)C.[Cl-].[Cl-] [HEXAMETHONIUM CHLORIDE]	-42	-43	–	-13	–	–	-69
NCCc1c[nH]cn1 [HISTAMINE]	-25	-26	–	-3	–	–	-16
COc1ccc(Cc2nccc3cc(OC)c(OC)cc23)cc1OC [PAPAVERINE]	-18	-16	–	-5	–	–	-19
COC(=O)[C@H]1[C@H]2C[C@@H]3c4[nH]c5cc(OC)ccc5c4CCN3C[C@H]2C[C@@H](OC(=O)c2cc(OC)c(OC)c(OC)c2)[C@@H]1OC [RESERPINE]	-31	-32	–	-15	–	–	-22
